For one compound, IC50 and MPC8 results are on record in US11090319B2, “Therapeutic uses of pharmaceutical compositions comprising cyclic boronic acid ester derivatives” (Melinta Subsidiary Corp., priority 2010, dated 2021).

Assay [1] has as its target various β-lactamases (bacterial lysates) (Escherichia coli, UniProt Q53TY8). Kind of assay: Inhibition of nitrocefin cleavage by bacterial lysates, Table 11. The format is biochemical. To be noted: lysate EC1010 pAmpC (CMY-6), read-out: NCF IC50 EC1010 pAmpC (CMY-6).
Assay [2] deals with ECL1004 Enterobacter cloacae NMC-A. Kind of assay: Checkerboard assay, biapenem potentiation. Conditions: Biapenem MIC 8-fold; ECL1004 NMC-A class A.
For assay [3], the system named is EC1007 Escherichia coli KPC-3. The assay is described as follows: Checkerboard assay, biapenem potentiation. To be noted: Biapenem MIC 8-fold; EC1007 KPC-3 class A.
Assay [4] has as its target CTX-M-15, lysate of KP1009 (Escherichia coli, UniProt Q9EXV5). The assay is described as follows: Inhibition of ceftazidime hydrolysis by bacterial lysate.
For a further assay, the target named is SHV-12, lysate of KP1010 (Klebsiella pneumoniae, UniProt P0AD64, E235K/G234S/L31Q). The assay is described as above.
Chain of SHV-12, lysate of KP1010 (P0AD64 22-286 L31Q/G234S/E235K): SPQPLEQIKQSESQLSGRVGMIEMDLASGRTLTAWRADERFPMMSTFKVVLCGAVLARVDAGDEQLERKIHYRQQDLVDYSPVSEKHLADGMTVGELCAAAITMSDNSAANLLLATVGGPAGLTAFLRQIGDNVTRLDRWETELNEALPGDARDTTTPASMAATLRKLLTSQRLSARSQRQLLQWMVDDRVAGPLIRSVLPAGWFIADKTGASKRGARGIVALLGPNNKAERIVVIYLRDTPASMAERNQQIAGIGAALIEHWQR
For another assay, the target named is OXA-2, lysate of KX1000 (Salmonella typhimurium, UniProt P0A1V8). The description is as above.
Chain of OXA-2, lysate of KX1000 (P0A1V8 22-275): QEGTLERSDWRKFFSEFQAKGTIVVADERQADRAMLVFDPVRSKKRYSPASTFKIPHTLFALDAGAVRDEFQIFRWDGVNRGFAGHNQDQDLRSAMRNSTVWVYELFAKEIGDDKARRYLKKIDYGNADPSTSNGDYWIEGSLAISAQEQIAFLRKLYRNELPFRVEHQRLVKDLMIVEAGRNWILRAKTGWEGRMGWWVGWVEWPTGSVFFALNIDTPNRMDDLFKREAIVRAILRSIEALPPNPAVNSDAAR

Some results are limits rather than exact numbers.

Chain of CTX-M-15, lysate of KP1009 (Q9EXV5 entry or part of it): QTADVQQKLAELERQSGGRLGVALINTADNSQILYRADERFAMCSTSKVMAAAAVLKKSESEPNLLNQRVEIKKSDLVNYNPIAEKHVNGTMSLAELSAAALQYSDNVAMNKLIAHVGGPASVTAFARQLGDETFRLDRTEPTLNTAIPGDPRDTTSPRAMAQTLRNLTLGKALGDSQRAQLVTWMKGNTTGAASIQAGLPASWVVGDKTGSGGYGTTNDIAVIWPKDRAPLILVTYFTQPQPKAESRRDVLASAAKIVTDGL
Chain of various β-lactamases (bacterial lysates) (Q53TY8 entry or part of it): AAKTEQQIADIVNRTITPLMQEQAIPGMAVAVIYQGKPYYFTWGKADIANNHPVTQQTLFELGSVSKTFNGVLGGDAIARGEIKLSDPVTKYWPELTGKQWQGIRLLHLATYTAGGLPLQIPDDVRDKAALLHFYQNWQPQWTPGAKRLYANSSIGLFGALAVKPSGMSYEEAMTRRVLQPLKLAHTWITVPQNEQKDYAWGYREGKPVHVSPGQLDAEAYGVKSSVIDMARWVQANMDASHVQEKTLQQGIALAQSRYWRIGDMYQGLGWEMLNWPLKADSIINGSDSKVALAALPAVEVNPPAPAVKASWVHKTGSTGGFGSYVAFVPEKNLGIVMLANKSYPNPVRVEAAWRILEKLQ

Broadly, the IC50 is the concentration at which inhibition is half-maximal. For the compound `O=C(O)C[C@@H]1CC[C@H](NC(=O)Cc2ccccc2)B(O)O1` [Compound 6, 2-((3R,6S)-2-hydroxy-3-(2-phenylacetamido)-1,2-oxaborinan-6-yl)acetic acid], the IC50 in assay [1] is > 6.87 µM; in assay [4], 0.344 to 3.44 µM; against SHV-12, lysate of KP1010 it was > 3.44 µM; against OXA-2, lysate of KX1000, 0.344 to 3.44 µM. For the same compound, the MPC8 entry in assay [2] is reported as “Y (MPC8 of 0.16 μg/mL to 1 μg/mL)”; in assay [3] it was “X (MPC8 of less than 0.16 μg/mL)”.
